Results as given in US7101848B2, “Bicyclic oligopeptides” (Boehringer Ingelheim Pharma GmbH & Co. KG, priority 2002, dated 2006).
≈ marks a conversion by molar mass, not a printed value. Where a SMILES comes first, the peptide text is derived from it. Bridges are numbered along the chain shown (N, C = ends).

Assays:
[1] = Metabolic stability with rat liver microsomes; assay type: in vitro ADME; details: Rat Micros; substrate 1 μM, 37° C., up to 45 min
Method: (§1) Incubations with preparations of microsomes and cytosol and with plasma under conditions as described below are suitable to investigate the metabolic stability of test compounds (e.g. oxidative metabolism reactions and hydrolysis by esterases). The metabolic stability of the test compounds of examples 1 and 2 is investigated in liver microsomes and cytosol of humans, dogs and rats and in plasma of humans and rats.
(§2) Incubations of test compounds (final concentration: 1 μM) are performed with liver microsomes and cytosol (0.5 mg protein/ml) in Tris buffer (Tris-(hydroxymethyl)-aminomethane) pH 7.4 (0.1 M) containing magnesium chloride (5 mM) at 37° C. for up to 45 min in a total volume of 100 μl. The reaction is initiated by addition of β-nicotinamide adenine dinucleotide phosphate, reduced form (NADPH, 1 mM) and terminated by addition of acetonitrile. After vortex mixing and centrifugation the supernatants are analyzed.
(§3) The samples are analyzed by on-line solid phase extraction and reversed phase HPLC coupled to electro-spray ionization tandem mass spectrometry. The measurements are performed on a triple quad mass spectrometer Quattro II (Micromass, Manchester, UK). The instrument operates at nominal mass resolution in SIR-mode. The analytes are quantified by detection of their quasimolecular ions [M+2H]^2+ m/z 1019 (Example 1) and m/z 1026 (Example 2).

[2] = Stability in human plasma; assay type: in vitro ADME; details: plasma (heparin), pH 7.4, substrate 1 μM, 37° C., up to 45 min, read-out: Half-lives (t½)
Method: as §1
(§4) Incubations of test substrates (final concentration: 1 μM) are performed with human and rat plasma (heparin) containing 0.1 M Tris buffer pH 7.4. The reaction is initiated by addition of the test compound at 37° C. for up to 45 min and terminated by addition of acetonitrile. After vortex mixing and centrifugation the supernatants are analyzed.
as §3

Stability in rat plasma = assay type: in vitro ADME; details: substrate 1 μM, 37° C., up to 45 min
Method: as §1, §4, §3

[3] = Metabolic stability with rat liver cytosol; assay type: in vitro ADME; details: 37° C., up to 45 min
Method: as §1, §2, §3

Solubility in buffer = assay type: physicochemical
Source text: and the following solubilities:

[4] = Metabolic stability with human liver cytosol; assay type: in vitro ADME; details: 37° C., up to 45 min
Method: as §1, §2, §3

[5] = Metabolic stability with dog liver cytosol; assay type: in vitro ADME; details: 37° C., up to 45 min
Method: as §1, §2, §3

[6] = Metabolic stability with dog liver microsomes; assay type: in vitro ADME; details: Dog Micros; substrate 1 μM, 37° C., up to 45 min
Method: as §1, §2, §3

[7] = Metabolic stability with human liver microsomes; assay type: in vitro ADME; details: Human Micros; substrate 1 μM, 37° C., up to 45 min
Method: as §1, §2, §3

[8] = liver cytosol, pH 7.4, substrate 1 μM, read-out: Half-lives (t½)

Half-lives (t½) [1] | half-life at 1 μM [2] | Half-lives (t½) (Stability in rat plasma) | Half-lives (t½) ([3]; substrate 1 μM) | solubility (Solubility in buffer; Buffer pH 3.0) | solubility (Solubility in buffer; Buffer pH 7.4) | solubility (Solubility in buffer; Buffer pH 10.0) | Half-lives (t½) ([4]; substrate 1 μM) | Half-lives (t½) ([5]; substrate 1 μM) | Half-lives (t½) [6] | Half-lives (t½) [7] | half-life at 1 μM [3, 8] | half-life at 1 μM [4, 8] | half-life at 1 μM [5, 8] | SMILES
stable | 3.03 h | stable | stable | 3 µg/mL (≈ 1.47 µM) | 120 µg/mL (≈ 58.9 µM) | 92 µg/mL (≈ 45.2 µM) | stable | stable | stable | stable | – | – | – | CC[C@H](C)[C@@H]1NC(=O)[C@@H]2CC(=O)NCC(=O)N[C@@H](CC(C)C)C(=O)N3CCC[C@H]3C(=O)N[C@@H](Cc3c[nH]c4ccccc34)C(=O)NCC(=O)N[C@@H](CSSC[C@@H](C(=O)O)NC(=O)[C@H](C)NC(=O)[C@H](Cc3c[nH]c4ccccc34)NC(=O)[C@@H]3CCCN3C(=O)[C@H]([C@@H](C)O)NC(=O)[C@H](CC(N)=O)NC(=O)[C@H](Cc3c[nH]c4ccccc34)NC(=O)CNC(=O)[C@@H]3CCCN3C1=O)C(=O)N1CCC[C@H]1C(=O)N[C@@H](CO)C(=O)N2 [Example 1] (GLPWGCPSDIPGWNTPWAC-OH; disulfide 6-19; lactam N-9)
stable | 3 h | stable | – | 3 µg/mL (≈ 1.46 µM) | 2 µg/mL (≈ 0.975 µM) | 4 µg/mL (≈ 1.95 µM) | – | – | stable | stable | 1.22 h | 2.03 h | 2.33 h | CC[C@H](C)[C@@H]1NC(=O)[C@@H]2CC(=O)NCC(=O)N[C@@H](CC(C)C)C(=O)N3CCC[C@H]3C(=O)N[C@@H](Cc3c[nH]c4ccccc34)C(=O)NCC(=O)N[C@@H](CSSC[C@@H](C(=O)OC)NC(=O)[C@H](C)NC(=O)[C@H](Cc3c[nH]c4ccccc34)NC(=O)[C@@H]3CCCN3C(=O)[C@H]([C@@H](C)O)NC(=O)[C@H](CC(N)=O)NC(=O)[C@H](Cc3c[nH]c4ccccc34)NC(=O)CNC(=O)[C@@H]3CCCN3C1=O)C(=O)N1CCC[C@H]1C(=O)N[C@@H](CO)C(=O)N2 [Example 2] (GLPWGCPSDIPGWNTPWAC-OMe; disulfide 6-19; lactam N-9)
